Source: PMC10853936, “Heterologous investigation of metabotropic and ionotropic odorant receptors in ab3A neurons of Drosophila melanogaster” (Frontiers in Molecular Biosciences, 2024)

Target: T1, CpomOrco (homomeric) (Cydia pomonella, UniProt H9A5M2)
T1 construct: full-length CDS in pcDNA5/TO, expressed alone in HEK293 cells (HEK293A in methods, HEK293T in results)
T1 sequence (H9A5M2 1-473): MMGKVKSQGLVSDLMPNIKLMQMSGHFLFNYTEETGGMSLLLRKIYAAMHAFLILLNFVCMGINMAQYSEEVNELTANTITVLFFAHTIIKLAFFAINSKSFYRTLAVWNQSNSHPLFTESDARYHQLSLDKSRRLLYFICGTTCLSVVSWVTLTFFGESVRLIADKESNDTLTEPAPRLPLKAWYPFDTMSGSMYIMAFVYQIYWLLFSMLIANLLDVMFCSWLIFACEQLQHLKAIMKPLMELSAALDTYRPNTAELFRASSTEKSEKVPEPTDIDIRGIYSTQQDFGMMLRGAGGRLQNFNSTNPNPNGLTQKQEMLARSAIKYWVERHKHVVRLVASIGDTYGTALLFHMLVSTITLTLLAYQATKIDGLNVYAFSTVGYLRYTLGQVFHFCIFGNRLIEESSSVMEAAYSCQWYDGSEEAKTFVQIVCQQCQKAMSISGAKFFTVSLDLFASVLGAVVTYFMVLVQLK
Test: Fluo-4 calcium imaging in HEK293 cells, Hill fit
Type: cell-based
Conditions: read-out: [VUAA1]1/2

EC50: 284 ± 39 µM
Compound: CCc1ccc(NC(=O)CSc2nnc(-c3cccnc3)n2CC)cc1 [VUAA1, acetamide, N-(4-ethylphenyl)-2-[[4-ethyl-5-(3-pyridinyl)-4H-1,2,4-triazol-3-yl]thio]-]
